Assays:
Cannabis explants = experiment: Shoot regeneration in tissue culture with "regeneration premium treatment"; format: cell-based, Cannabis sativa
Protocol: Regeneration from Cannabis plant material using tissue culture, germinated leaves, cotyledons and hypocotyls were used for regeneration. The plants were placed on a petri dish containing 20 ml regeneration media using premium treatment with cuticle nicking enzymes: MS salt mixture, supplemented with 100 mg/l myo-inositol, 1 mg/l thiamine-HCl, 2% sucrose (w/v) at pH 5.7) with and without 5 ml pectic enzymes reaction mixture (0.25 ml 10% enzyme fungal mix of pectin and cutinase 0.25 ml 200 mM Tris-HCl).
Three youngest expanding leaves isolated from 3 to 4 weeks old plants were with and placed on regeneration medium with cuticle nicking enzymes (Murashige and Skoog (MS) medium salt mixture, containing 0.05-5.0 μM thidiazuron, supplemented with 100 mg/l myo-inositol, 1 mg/l thiamine-HCl, 2% sucrose (w/v) at pH 5.7, with 5 ml pectic enzymes reaction mixture (0.25 ml 10% cuticle nicking enzyme in 0.25 ml 200 mM Tris-HCl). The cultures were kept for 7 days in low light intensity (2.5 mmol/m2 s) followed by exposure to high light intensity (40 mmol/m2 s) at 25° C., in a 16/8 h photoperiod. Leaf explants were examined after 14 and 21 days and the percentage of explant producing shoots were calculated. […]

[1] = system: Cannabis leaf segment explants; experiment: Somatic embryogenesis in liquid culture; format: cell-based, Cannabis sativa; conditions: liquid Gamborg B5 medium
Protocol: Leaf segments from tissue culture grown on the solid medium (1.5 cm diameter and 4-5 cm long) of two Cannabis cultivars (108 and 201) were used. Innermost leaf whorls were cut obliquely (0.5-1.0 cm), injured with sharp scalpel blade in order to achieve callus initiation. Leaf segment, were used as explant for inoculation on MS medium (Murashige and Skoog 1962) supplemented with 2,4-D (4.0 mg/L) and kinetin [Kin] (0.5 mg/L). After 2-3 weeks the cultures were incubated at 25±2 C at 70-80% humidity in dark in liquid Gamborg B5 medium supplemented with 6% sucrose and different plant hormones (Table 1). The media was refreshed every three weeks.
Leaf segments from tissue culture from two different genotypes (108 and 201) have been used as primary explants. The explants were chopped to small pieces (as less as 0.5 mm) and cultivated in liquid Gamborg B5 medium supplemented with 6% sucrose and different plant hormones (Table 1). The media were refreshed every three weeks.
The initiated suspension cultures along with embryos in globular stage (FIGS. 12A-12B) were sub-cultured in the same medium for three weeks. Part of the cultures was transferred to B5 Gamborg media, supplemented with different hormones/chemicals (Table 2) to provoke embryo elongation and further development. The cultures were transferred to fresh media every three weeks.

Cannabis shoots = experiment: Rooting (root induction) of shoots; format: cell-based, Cannabis sativa L.
Protocol: Shoot was cultivated individually in a tube with root induction (RI) medium composed of half strength MS medium (½MS) supplemented with 100 mg/l myo-inositol, 1 mg/l thiamine-HCl, 90 mg/l phloroglucinol, 2% sucrose (w/v), 0.25% activated charcoal (AC), with or without IBA (at different concentrations (0, 1, 2 mg/l) and 0.8% agar. Soil mixture was moistened by soaking the rooting cylinders in liquid RI medium supplemented with either 0, 1, or 2 mg/l IBA. Each treatment consisted of 10 shoots and results were scored after 4 weeks. Each experiment was repeated three times.
To obtain root induction, different concentrations of IBA were examined. The shoots were placed in a tube containing rooting medium containing 0, 1, or 2 mg/l IBA. Using this method with 2 mg/l IBA, about 85% of the shoots formed roots. However, only low percentage of these plants successfully acclimatized under greenhouse conditions. According to the second approach, shoots were cultured directly in rooting cylinders. After 4 weeks, 100% root formation was achieved, independently of the concentration of auxin used (FIGS. 5A-5C). These plants had better hardening and underwent easier acclimatization in greenhouse conditions. In-vitro clonal propagation, rooting and acclimatized plantlet production was established for 10 different Cannabis cultivars. […]

For `O=C(Nc1ccccc1)Nc1cnns1` [thidiazuron], the “quality and quantity of regenerates” value (Cannabis explants; 0.5 μM thidiazuron, media treatment with cuticle nicking enzymes) was “better”.
In the case of `O=C(Nc1ccccc1)Nc1ccnc(Cl)c1` [CPPU], the somatic embryo initiation ([1]; 10 mg/l, 6% sucrose) is reported as “essential for the embryo initiation”.
`C=C1C[C@]23C[C@@]1(O)CC[C@H]2[C@@]12C=C[C@H](O)[C@@](C)(C(=O)O1)[C@H]2[C@@H]3C(=O)O` [gibberellic acid] was tested, and the shoot growth (Cannabis explants; 7.0 μM gibberellic acid added to medium containing 0.5 μM thidiazuron) was “slightly increased shoot growth”.
For `O=C(O)CCCc1c[nH]c2ccccc12` [IBA, indol-3-butyric acid], the root formation (Cannabis shoots; shoots cultured directly in rooting cylinders, after 4 weeks, independently of the concentration of auxin (0, 1, 2 mg/l IBA)) was 100% and the shoots formed roots (Cannabis shoots; tube containing rooting medium, 2 mg/l IBA) was “about 85%”.
With `CC(C)=CCNc1ncnc2nc[nH]c12` [2iP] the “amount of somatic embryos generated” value ([1]; gyratory shaker at dark) was “Low amounts of embryos”.
